# Laboratory results published in article PMC10310857 (Nature Communications, 2023).
# Target: Pst_13661 (Puccinia striiformis f. sp. tritici, UniProt A0A0L0V0Y3, T32S)
# Assay type: biochemical
# Conditions: 100 µM
compound,measurement,value
"O=C(NO)c1ccccc1 [Compound 1, benzohydroxamic acid]",Inhibition Rate Pst_13661 Mean,100.8%
